These results are taken from paper PMC6058608, “Cell penetrating peptides: a comparative transport analysis for 474 sequence motifs” (Drug Delivery, 2018).

In the first experiment the test system is HeLa cells. The experiment can be described thus: CPP uptake experiment: cellular fluorescence of FAM-labeled CPPs. It is filed as cell-based, human. The following applies: FAM not coupled to a CPP; mean value and standard error of two measurements. The procedure: The human cervix adenocarcinoma cell line HeLa was obtained from I.A.Z. (Munich, Germany). As cell growth medium DMEM/Ham’s F-12 (1:1) supplemented with 2 mM L-glutamine, 10% fetal bovine serum, and 1% penicillin/streptomycin (all Capricorn Scientific, Ebsdorfergrund, Germany, formerly PAA Laboratories) was used, and cells were cultured at 37 °C and 5% CO2. They were passaged before reaching confluence; for the experiments, cells at passages p8–p20 were used. For testing uptake efficiency and cytotoxicity of CPPs, cells were seeded in 96-well µ-plates (ibidi, Munich, Germany) at a concentration of 6 × 10^4 cells per well and incubated for 48 h to reach confluence before performing the experiments.
All solutions used were warmed to 37 °C, with CPP incubation performed at 37 °C and 5% CO2. CPP working solutions were prepared in 96-well polypropylene plates (Corning, Amsterdam, Netherlands) directly before incubation by diluting the 50 µM FAM-labeled CPP stock solutions to 10 µM with cell growth medium. The confluent HeLa cells in the 96-well µ-plates were exposed to 100 µl of a 10 µM CPP working solution per well for 90 min. Cell growth medium served as negative control. After incubation, the cells were washed twice with 300 µl of CM-PBS (PAA Laboratories), then 100 µl CM-PBS was added before determining fluorescence intensities in a plate reader (SpectraMax M5, Molecular Devices, Sunnyvale, CA) at an excitation wavelength of 495 nm and an emission wavelength of 530 nm. Transmission images of the treated cell layers were taken using a MORE microscope (TILL Photonics, Munich, Germany) equipped with a 10×/0.45 objective (Zeiss, Jena, Germany), an FITC filterset (ET480_40x/ET535_50 m/T510LPXRXT, Chroma, Rockingham, NC) and LED and oligochrome light source (FEI). Images were acquired using a Stingray F-145B CCD camera (Allied Vision Tech., Stadtroda, Germany) via live acquisition software (v2.2.2, FEI).
Take “5(6)-carboxyfluorescein [FAM, reference compound]”: the “Uptake of FAM without CPP into the HeLa layer” value is on record as 14.3 ± 8.1 RFU.

The experiment is the same for the next values; noted with them: HeLa cells after incubation with 10 µM FAM-labeled CPP, 90 min, 37 °C; mean of two experiments (Table 1).
CWKKKKKKKKKKKKKKKKKK [compound 429]: the “Fluorescence (RFU)” value worked out at 417.94 RFU.
Same read-out and setting: the same measure for GLFKALLKLLKSLWKLLLKA [compound 431]: 326.66 RFU.
The same measure, in the same setting: for GLWRALWRALRSLWKLKRKV [compound 425] the value was 384.64 RFU; for GLWRALWRGLRSLWKKKRKV [compound 427], 375.17 RFU.
The same measure, in the same setting: for GLWRALWRGLRSLWKLKRKV [compound 426] the value was 347.66 RFU; for KALAKALAKLWKALAKAA [compound 373], 345.58 RFU.
For the substance “KKKKKKKKKKKKKKKKKKK [compound 412, designed model peptide, FAM-labeled CPP]”, the “Fluorescence (RFU)” value worked out at 632.01 RFU.
Still for that read-out and setting: the same measure for KLAAALLKKWKKLAAALL [compound 375]: 335.89 RFU.
Still for that read-out and setting: for “KLALKLALKALKAALK [compound 296, designed model peptide, FAM-labeled CPP]” the value was 478.40 RFU; for KLALKLALKALKAALKLA [compound 405], 440.41 RFU.
Regarding KLALKLALKAWKAALKLA [compound 372], the “Fluorescence (RFU)” value was 309.34 RFU.
With “KTVLLRKLLKLLVRKI [compound 342, designed model peptide, FAM-labeled CPP]”, the “Fluorescence (RFU)” value worked out at 855.56 RFU.
Consider LIRLWSHLIHIWFQNRRLKWKKK [compound 466], for which the “Fluorescence (RFU)” value came out at 425.60 RFU.
Turning to LLKKRKVVRLIKFLLK [compound 343], the “Fluorescence (RFU)” value came to 435.30 RFU.
The same measure, in the same setting: the same measure for LNSAGYLLGKINLKALAALAKKIL [compound 473]: 422.13 RFU; for PKKKRKVALWKTLLKKVLKA [compound 415]: 390.81 RFU; for RQARRNRRRALWKTLLKKVLKA [compound 446]: 450.97 RFU.
As to “VKRKKKPALWKTLLKKVLKA [compound 416, CPP derived from the antimicrobial peptide dermaseptin S4 attached to a nuclear localization signal, FAM-labeled]”, the “Fluorescence (RFU)” value was found to be 925.42 RFU.
With WLRRIKAWLRRIKALNRQLGVAA [compound 471], the “Fluorescence (RFU)” value worked out at 1011.42 RFU.
With YTAIAWVKAFIRKLRK [compound 351], the “Fluorescence (RFU)” value turned out to be 401.31 RFU.
